The assay addresses T1, human PPARα (Homo sapiens, UniProt Q07869).
T1 construct: expressed in transfected cells; host or cells: HEK (human embryo kidney) cells, stably transfected
T1 sequence (Q07869 1-468): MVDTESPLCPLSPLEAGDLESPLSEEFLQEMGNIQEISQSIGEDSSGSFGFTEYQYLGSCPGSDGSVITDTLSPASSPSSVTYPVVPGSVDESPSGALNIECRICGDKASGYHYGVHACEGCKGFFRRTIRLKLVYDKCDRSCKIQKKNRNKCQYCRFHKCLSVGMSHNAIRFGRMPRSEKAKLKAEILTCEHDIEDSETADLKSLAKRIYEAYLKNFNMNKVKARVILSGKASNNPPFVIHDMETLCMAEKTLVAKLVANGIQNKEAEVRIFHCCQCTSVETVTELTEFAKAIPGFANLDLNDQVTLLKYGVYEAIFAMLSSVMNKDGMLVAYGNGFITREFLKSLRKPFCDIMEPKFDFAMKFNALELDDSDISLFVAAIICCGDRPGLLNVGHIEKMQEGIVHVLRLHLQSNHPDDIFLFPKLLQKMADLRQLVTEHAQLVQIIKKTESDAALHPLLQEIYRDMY
The assay can be described thus: PPARα reporter cell line assay (stably transfected HEK cells, luciferase readout, three-day test). In kind it is cell-based. To be noted: agonist activity in stably transfected HEK PPARα reporter cell line, 24 h incubation, luciferase luminescence. The method, then: To analyze the effectiveness of substances which bind to human PPARα, activating it in agonistic manner, a stable transfected HEK cell line (HEK=human embryo kidney) designated here as “PPARα reporter cell line” is used.
The activity of PPARα agonists is determined in a three-day test, described below:
The PPARα reporter cell line is cultivated up to 80% confluence in DMEM medium (#41965-039, Life Technologies) with the following additives: 10% cs-FCS (fetal calf serum, #SH-30068.03, Hyclone), antibiotics (0.5 mg/ml of zeozin [#R250-01, Invitrogen], 0.5 mg/ml of G418 [#10131-019, Life Technologies], 1% penicillin streptomycin solution [#15140-031, Life Technologies]) and 2 mM of L-glutamine (#25030-032, Life Technologies). Cultivation is carried out in standard cell culture bottles (#33111, Becton Dickinson) in a cell culture incubator at 37° C. and 5% CO2. The 80% confluent cells are washed once with 30 ml of PBS (#141-090- 094, Life Technologies), treated with 2 ml of trypsin solution (#25300-054, Life Technologies) at 37° C. for 2 min, taken up in 5 ml of the medium described above and counted in a cell counter. After dilution to 500,000 cells/ml, in each case 100,000 cells are sown into each well of a 96-well microtiter plate having a clear plastic bottom (#3610, Corning Costar). The plates are incubated in a cell incubator at 37° C. and 5% CO2 for 24 h.
The PPARα agonists to be tested are dissolved in DMSO at a concentration of 10 mM. This stock solution is diluted in Phenol-Red-free DMEM medium (#21063-029, Life Technologies) to which 5% of cs-FCS (#SH-30068.03, Hyclone), 2 mM of L-glutamine (#25030-032, Life Technologies) and the antibiotics described above (zeozin, G418, penicillin and streptomycin) had been added.
Test substances are usually tested at 11 different concentrations (10 μM; 3.3 μM; 1 μM; 0.33 μM; 0,1 μM; 0.033 μM; 0.01 μM; 0.0033 μM; 0.001 μM; 0.00033 μM and 0.0001 μM). […] From each well, the medium of the PPARα reporter cell line sown on day 1 is completely removed by aspiration, and immediately, the test substances diluted in medium are added to the cells. Dilution and addition of the substances can be carried out using a robot (Beckman Biomek 2000). The end volume of the test substances diluted in medium is 100 μl per well of a 96-well plate. The DMSO concentration in the assay is always below 0.1% v/v to prevent cytotoxic effects of the solvent.
The test plates are incubated in an incubator at 37° C. and 5% CO2 for 24 h.
The PPARα receptor cells treated with the test substances are removed from the incubator and frozen at −20° C. for 1 h to improve cell lysis. After the plates have thawed (thawing at room temperature for at least 30 min), 50 μl of buffer 1 (Luc-Screen kit #LS1000, PE Biosystems Tropix) are pipetted into each well and the plates are then transferred into an apparatus for measuring luminescence, fitted with a pipetting unit (Luminoscan Ascent, LabSystems). The luciferase reaction in the measurement apparatus is started by pipetting 50 μl of buffer 2 (Luc-Screen kit #LS1000, PE Biosystems Tropix) into each well of the 96-well plate. Addition of buffer to the individual wells is carried out in defined and identical time intervals following the instructions of the manufacturer (LabSystems). All samples are measured exactly 16 min after addition of buffer 2. Measurement time is 10 sec per sample.
The crude data of the apparatus for measuring luminescence are exported into a Microsoft Excel file. Dose-activity curves and EC50 values are calculated using the program XL.Fit according to the instructions of the manufacturer (IDBS).
On to `Cc1cccc(COC2CCCC(OCc3nc(-c4cccc(Br)c4)oc3C)C2)c1C(=O)O` (centres unmarked) [XXXII], for which a half-maximal response (EC50) required 0.97 nM.
Take `COc1ccc(-c2nc(COC3CCCC(OCc4cccc(C)c4C(=O)O)C3)c(C)o2)cc1OC` (centres unmarked) [XLIII, 2-{3-[2-(3,4-Dimethoxyphenyl)-5-methyloxazol-4-ylmethoxy]cyclohexyloxymethyl}-6-methylbenzoic Acid]: the EC50 (usually the concentration needed to bring the measured effect to its halfway point) came to 0.58 nM.
In turn, `Cc1cccc(COC2CCCC(OCc3nc(-c4cccc(Cl)c4)oc3C)C2)c1C(=O)O` (centres unmarked) [XXXVI, 2-{3-[2-(3-Chlorophenyl)-5-methyloxazol4-ylmethoxy]cyclohexyloxymethyl}-6-methylbenzoic Acid] returned a concentration giving a half-maximal response (EC50) of 0.62 nM.
Compound `COc1cccc(-c2nc(COC3CCCC(OCc4cccc(C)c4C(=O)O)C3)c(C)o2)c1` (centres unmarked) [XXXIV, 2-{3-[2-(3-Methoxyphenyl)-5-methyloxazol4-ylmethoxy]cyclohexyloxymethyl}-6-methylbenzoic Acid] came in with a concentration for a half-maximal effect (EC50) of 0.82 nM.
In the case of `Cc1cccc(-c2nc(COC3CCCC(OCc4cccc(C)c4C(=O)O)C3)c(C)o2)c1` (centres unmarked) [XXXVIII, 2-{3-[2-(3-Methylphenyl)-5-methyloxazol-4-ylmethoxy]cyclohexyloxymethyl}-6-methylbenzoic Acid], the response was half-maximal at 0.57 nM (EC50).
As to `Cc1cccc(COC[C@H]2CCC[C@@H](OCc3coc(-c4ccc(F)cc4)n3)C2)c1C(=O)O` (racemic) [XXV, Rac-cis-2-{3-[2-(4-Fluorophenyl)oxazol4-ylmethoxy]cyclohexylmethoxymethyl}-6-methylbenzoic Acid], the EC50 was determined as 13 nM.
Consider `Cc1ccccc1-c1nc(COC2CCCC(OCc3cccc(C)c3C(=O)O)C2)c(C)o1` (centres unmarked) [XLI, 2-{3-[2-(2-Methylphenyl)-5-methyloxazol-4-ylmethoxy]cyclohexyloxymethyl}-6-methylbenzoic Acid], for which the EC50 was determined as 0.6 nM.
For the compound “2-{3-[2-(4-Fluorophenyl)oxazola4-ylmethoxy]cyclohexyloxy}-6-methylbenzoic Acid [Example I]”, the concentration for a half-maximal effect (EC50) stood at 1 nM.
In the case of `Cc1cccc(COC2CCCC(OCc3nc(-c4cccc(C#N)c4)oc3C)C2)c1C(=O)O` (centres unmarked) [XLIV, 2-{3-[2-(3-Cyanophenyl)-5-methyloxazol-4-ylmethoxy]cyclohexyloxymethyl}-6-methylbenzoic Acid], a half-maximal response (EC50) required 0.93 nM.
To `Cc1cccc(CC[C@@H]2CCC[C@H](OCc3coc(-c4ccc(F)cc4)n3)C2)c1C(=O)O` (racemic) [XXVIII, Rac-cis-2-(2-{3-[2-(4-Fluorophenyl)oxazol-4-ylmethoxy]cyclohexyl}ethyl)-6-methylbenzoic Acid] belongs 14 nM.
The compound `Cc1cccc(CC[C@H]2CCC[C@H](OCc3coc(-c4ccc(F)cc4)n3)C2)c1C(=O)O` (racemic) [XXIX, Rac-trans-2-(2-{3-[2-(4-Fluorophenyl)oxazol4-ylmethoxy]cyclohexyl}ethyl)-6-methylbenzoic Acid] yielded an EC50 of 32 nM.
